# According to ChEMBL document CHEMBL1201862, “PubChem BioAssay data set” (2004):
#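 Growth conditions: 96-well plates. Treatment: test compound, 48 hours, 5 concentrations. Analysis: linear interpolation between bracketing concentrations; unreached endpoints set to highest concentration. At the GI50, growth is halved.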 Activity calls are given as the source filed them. Rule as the data show it: active = GI50 up to about 1.1 µM and inactive = higher.
# Tests used:
# Test in all cases: inhibition of tumour cell growth, NCI panel, 48 h
# ACHN = tested on: ACHN
# SF-268 = tested on: SF-268
# NCI-H226 = tested on: NCI-H226
# LOX IMVI = tested on: LOX IMVI
# SNB-75 = tested on: SNB-75
# SF-295 = tested on: SF-295
# NCI-H522 = tested on: NCI-H522
# SK-OV-3 = tested on: SK-OV-3
# NCI-H460 = tested on: NCI-H460
# KM12 = tested on: KM12
# A549 = tested on: A549
# HOP-92 = tested on: HOP-92
# M19-MEL = tested on: M19-MEL
# T47D = tested on: T47D
# EKVX = tested on: EKVX
# A498 = tested on: A498
# DU-145 = tested on: DU-145
# BT-549 = tested on: BT-549
# MDA-MB-435 = tested on: MDA-MB-435
# MDA-N = tested on: MDA-N
SMILES,GI50 (ACHN),GI50 (SF-268),GI50 (NCI-H226),GI50 (LOX IMVI),GI50 (SNB-75),GI50 (SF-295),GI50 (NCI-H522),GI50 (SK-OV-3),GI50 (NCI-H460),GI50 (KM12),GI50 (A549),GI50 (HOP-92),GI50 (M19-MEL),GI50 (T47D),GI50 (EKVX),GI50 (A498),GI50 (DU-145),GI50 (BT-549),GI50 (MDA-MB-435),GI50 (MDA-N)
Oc1cc(-c2ccccc2)c2ccccc2n1,33.4 µM (inactive),52.6 µM (inactive),25.8 µM (inactive),57.9 µM (inactive),13 µM (inactive),87.9 µM (inactive),20.9 µM (inactive),20.5 µM (inactive),41.9 µM (inactive),71.4 µM (inactive),34.4 µM (inactive),5.62 µM (inactive),82.6 µM (inactive),–,–,–,–,–,–,–
CC1(C)SC2C(C(=O)O)N=C(Cc3ccccc3)N2C1C(=O)O (configuration not stated),38.9 µM (inactive),30.1 µM (inactive),29.8 µM (inactive),25.5 µM (inactive),19.6 µM (inactive),31.7 µM (inactive),51.3 µM (inactive),41.2 µM (inactive),45.1 µM (inactive),> 100 µM (inactive),31.8 µM (inactive),42.8 µM (inactive),–,24.4 µM (inactive),3.97 µM (inactive),53.7 µM (inactive),56.6 µM (inactive),31 µM (inactive),40.7 µM (inactive),49 µM (inactive)
Cc1ccc(C)c2sc3cc(=O)ccc-3nc12,30 µM (inactive),43.5 µM (inactive),75.2 µM (inactive),–,55.5 µM (inactive),39.1 µM (inactive),7.83 µM (inactive),> 100 µM (inactive),34.2 µM (inactive),33.8 µM (inactive),41.2 µM (inactive),28.1 µM (inactive),17.3 µM (inactive),–,37.2 µM (inactive),–,–,–,–,–
CCCCc1c2c(nc3c1CCC/C3=C\c1ccccc1)/C(=C/c1ccccc1)CCC2,> 100 µM (inactive),> 100 µM (inactive),> 100 µM (inactive),> 100 µM (inactive),–,> 100 µM (inactive),> 100 µM (inactive),> 100 µM (inactive),> 100 µM (inactive),> 100 µM (inactive),> 100 µM (inactive),–,> 100 µM (inactive),–,> 100 µM (inactive),–,–,–,–,–
CC(=O)OC1OC(c2ccoc2)C[C@@]12C1CCC3O[C@]3(C)[C@]1(C)C[C@H](OC(C)=O)[C@H]2C (some centres not stated),> 75 µM (inactive),> 75 µM (inactive),> 75 µM (inactive),> 75 µM (inactive),> 75 µM (inactive),> 75 µM (inactive),> 75 µM (inactive),> 75 µM (inactive),58.3 µM (inactive),> 75 µM (inactive),> 75 µM (inactive),72.8 µM (inactive),–,35.2 µM (inactive),> 75 µM (inactive),> 75 µM (inactive),> 75 µM (inactive),> 75 µM (inactive),> 75 µM (inactive),> 75 µM (inactive)
COCCOC1=C(Cl)C(=O)c2c(O)ccc(O)c2C1=O,1.11 µM (active),4.71 µM (inactive),12.1 µM (inactive),1.16 µM (inactive),5.55 µM (inactive),14.8 µM (inactive),0.681 µM (active),16.8 µM (inactive),5.52 µM (inactive),9.48 µM (inactive),8.34 µM (inactive),0.726 µM (active),–,2.47 µM (inactive),4.97 µM (inactive),10.4 µM (inactive),5.26 µM (inactive),2.52 µM (inactive),1.02 µM (active),1.34 µM (inactive)
O=C(CC(=O)Nc1ccc(Cl)cc1)NNCC(=O)Nc1nc(-c2ccccc2)cs1,–,> 100 µM (inactive),> 100 µM (inactive),> 100 µM (inactive),> 100 µM (inactive),> 100 µM (inactive),> 100 µM (inactive),> 100 µM (inactive),> 100 µM (inactive),> 100 µM (inactive),> 100 µM (inactive),–,> 100 µM (inactive),–,> 100 µM (inactive),–,–,–,–,–
C[Si](C)(C)C(CCCCSc1ccccc1)(Sc1ccccc1)Sc1ccccc1,> 100 µM (inactive),> 100 µM (inactive),–,> 100 µM (inactive),> 100 µM (inactive),> 100 µM (inactive),–,> 100 µM (inactive),> 100 µM (inactive),> 100 µM (inactive),> 100 µM (inactive),73.6 µM (inactive),> 100 µM (inactive),–,> 100 µM (inactive),> 100 µM (inactive),–,–,–,–
CN1CCN2CCN(C)CCN(CC1)CC2,> 100 µM (inactive),> 100 µM (inactive),> 100 µM (inactive),> 100 µM (inactive),> 100 µM (inactive),> 100 µM (inactive),> 100 µM (inactive),> 100 µM (inactive),> 100 µM (inactive),> 100 µM (inactive),> 100 µM (inactive),> 100 µM (inactive),–,> 100 µM (inactive),> 100 µM (inactive),> 100 µM (inactive),> 100 µM (inactive),> 100 µM (inactive),> 100 µM (inactive),> 100 µM (inactive)
C#Cc1nc(N)c2ncn(C3OC(COS(N)(=O)=O)C(O)C3O)c2n1 (configuration not stated),< 0.0146 µM (active),0.018 µM (active),0.0158 µM (active),< 0.0176 µM (active),0.02 µM (active),0.757 µM (active),< 0.01 µM (active),< 0.01 µM (active),< 0.0193 µM (active),< 0.0193 µM (active),0.0881 µM (active),< 0.01 µM (active),–,< 0.01 µM (active),0.262 µM (active),< 0.0148 µM (active),0.0518 µM (active),< 0.01 µM (active),0.016 µM (active),< 0.0168 µM (active)
O=c1cnn2c(n1)sc1ccc3ccccc3c12,> 100 µM (inactive),> 100 µM (inactive),> 100 µM (inactive),76.6 µM (inactive),> 100 µM (inactive),> 100 µM (inactive),–,> 100 µM (inactive),61.2 µM (inactive),> 100 µM (inactive),65.6 µM (inactive),> 100 µM (inactive),> 100 µM (inactive),–,25.1 µM (inactive),–,–,–,–,–
N#Cc1c2ccc([N+](=O)[O-])cc2c(=O)n2c1[nH]c1ccc(C(F)(F)F)cc12,48 µM (inactive),39.6 µM (inactive),14.3 µM (inactive),6.56 µM (inactive),27.3 µM (inactive),14.4 µM (inactive),7.28 µM (inactive),41.9 µM (inactive),21.1 µM (inactive),24.8 µM (inactive),> 55.8 µM (inactive),12.9 µM (inactive),–,32.4 µM (inactive),> 100 µM (inactive),7.91 µM (inactive),44.4 µM (inactive),25.2 µM (inactive),54 µM (inactive),> 64.9 µM (inactive)
COC(=O)/C(C)=C(/CCC1(C)OCCO1)O[Si](C)(C)C,> 100 µM (inactive),> 100 µM (inactive),–,> 100 µM (inactive),20.5 µM (inactive),> 100 µM (inactive),–,> 100 µM (inactive),47.1 µM (inactive),> 100 µM (inactive),> 100 µM (inactive),> 100 µM (inactive),> 100 µM (inactive),–,> 100 µM (inactive),–,–,–,–,–
